Data taken from ChEMBL document CHEMBL1909046, “DrugMatrix in vitro pharmacology data”.

Legend:
[1] = molecular target: T1, C-X-C chemokine receptor type 1 (Homo sapiens, UniProt P25024); further: in other assays of this panel Not Active means under 50% inhibition at 10 µM
T1 sequence (P25024 whole entry): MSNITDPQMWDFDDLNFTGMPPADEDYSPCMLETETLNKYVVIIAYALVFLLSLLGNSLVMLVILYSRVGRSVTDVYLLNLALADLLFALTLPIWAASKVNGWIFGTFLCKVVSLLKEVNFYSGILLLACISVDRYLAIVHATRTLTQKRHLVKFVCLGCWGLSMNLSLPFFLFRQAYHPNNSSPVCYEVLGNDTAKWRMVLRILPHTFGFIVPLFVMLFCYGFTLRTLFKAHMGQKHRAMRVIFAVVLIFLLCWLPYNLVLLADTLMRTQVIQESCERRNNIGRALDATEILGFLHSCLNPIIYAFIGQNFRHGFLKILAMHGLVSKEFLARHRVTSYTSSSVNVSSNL

[2] = molecular target: T2, Alpha-2C adrenergic receptor (Homo sapiens, UniProt P18825); test: DRUGMATRIX: Adrenergic Alpha-2C radioligand binding (ligand: [3H] MK-912); type: cell membranes, Sf9, Membrane
T2 sequence (P18825 whole entry): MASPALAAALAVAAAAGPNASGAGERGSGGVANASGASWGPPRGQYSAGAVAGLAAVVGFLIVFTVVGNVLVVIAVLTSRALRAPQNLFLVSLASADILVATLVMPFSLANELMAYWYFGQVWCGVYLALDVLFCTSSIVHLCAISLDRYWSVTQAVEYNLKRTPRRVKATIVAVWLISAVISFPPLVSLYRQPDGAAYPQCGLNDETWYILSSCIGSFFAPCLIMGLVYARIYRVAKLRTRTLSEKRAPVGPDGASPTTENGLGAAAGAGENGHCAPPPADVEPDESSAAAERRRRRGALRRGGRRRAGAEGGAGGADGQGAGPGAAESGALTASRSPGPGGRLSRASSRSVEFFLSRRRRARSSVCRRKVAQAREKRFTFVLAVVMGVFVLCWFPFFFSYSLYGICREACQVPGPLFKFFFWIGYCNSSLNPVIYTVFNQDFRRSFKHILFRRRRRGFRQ

[3] = DRUGMATRIX: GABAA, Muscimol, Central radioligand binding (ligand: [3H] Muscimol); type: cell membranes, Rattus norvegicus, Wistar, Brain, Membrane; conditions: Not Active = under 50% inhibition at 10 µM
Thromboxane-A synthase = molecular target: T3, Thromboxane-A synthase (Homo sapiens, UniProt P24557); test: biochemical; type: tissue-based, Platelet;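 further: enzyme inhibition assay with PGH2 supplied as substrate; in other assays of this panel Not Active means under 50% inhibition at 10 µM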
T3 sequence (P24557 whole entry): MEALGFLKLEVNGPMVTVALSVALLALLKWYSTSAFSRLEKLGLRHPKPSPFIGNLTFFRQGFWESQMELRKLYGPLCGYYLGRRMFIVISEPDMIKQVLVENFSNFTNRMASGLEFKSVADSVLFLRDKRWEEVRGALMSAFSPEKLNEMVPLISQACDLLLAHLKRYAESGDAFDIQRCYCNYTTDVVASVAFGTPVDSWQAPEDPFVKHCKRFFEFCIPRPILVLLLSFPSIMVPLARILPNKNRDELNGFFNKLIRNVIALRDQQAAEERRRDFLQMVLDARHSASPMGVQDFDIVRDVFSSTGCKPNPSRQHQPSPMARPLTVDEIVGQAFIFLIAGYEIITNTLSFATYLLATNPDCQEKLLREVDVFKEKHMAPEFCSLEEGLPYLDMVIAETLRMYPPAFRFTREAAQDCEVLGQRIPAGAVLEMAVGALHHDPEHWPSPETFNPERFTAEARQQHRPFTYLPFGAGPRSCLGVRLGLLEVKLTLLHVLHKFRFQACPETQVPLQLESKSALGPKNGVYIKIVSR

[4] = molecular target: T4, Amine oxidase [flavin-containing] A (Homo sapiens, UniProt P21397); test: DRUGMATRIX: Monoamine Oxidase MAO-A enzyme inhibition (substrate: Kynuramine); parameters: species or system BTI-TN-5B1-4; conditions: bti-tn-5b1-4; Not Active = under 50% inhibition at 10 µM
T4 sequence (P21397 whole entry): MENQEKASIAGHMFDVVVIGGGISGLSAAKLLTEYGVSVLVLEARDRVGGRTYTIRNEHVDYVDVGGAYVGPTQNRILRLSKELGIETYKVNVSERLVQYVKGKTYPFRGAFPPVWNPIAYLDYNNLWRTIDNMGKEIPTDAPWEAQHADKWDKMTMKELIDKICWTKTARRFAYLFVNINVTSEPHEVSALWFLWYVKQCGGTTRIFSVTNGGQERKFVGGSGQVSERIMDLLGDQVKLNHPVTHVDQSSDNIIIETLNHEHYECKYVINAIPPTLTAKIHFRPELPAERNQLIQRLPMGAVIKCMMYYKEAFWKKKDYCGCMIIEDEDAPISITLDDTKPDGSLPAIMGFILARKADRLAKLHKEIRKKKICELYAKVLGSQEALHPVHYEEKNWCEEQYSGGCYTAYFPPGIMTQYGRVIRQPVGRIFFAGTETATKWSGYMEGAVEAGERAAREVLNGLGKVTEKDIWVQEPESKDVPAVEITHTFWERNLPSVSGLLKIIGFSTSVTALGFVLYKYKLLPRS

[5] = molecular target: Tyrosine-protein kinase Lck (Homo sapiens, UniProt P06239); test: DRUGMATRIX: Protein Tyrosine Kinase, LCK enzyme inhibition (substrate: Poly(Glu:Tyr)); type: cell-based, Insect cells; conditions: Not Active = under 50% inhibition at 10 µM
[6] = molecular target: Sodium-dependent noradrenaline transporter (Homo sapiens, UniProt P23975); test: DRUGMATRIX: Norepinephrine Transporter radioligand binding (ligand: [125I] RTI-55); type: cell membranes, MDCK, Membrane; conditions: Not Active = under 50% inhibition at 10 µM
Neutrophil elastase = molecular target: T5, Neutrophil elastase (Homo sapiens, UniProt P08246); type: tissue-based;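 further: inhibition of neutrophil elastase enzyme activity, measured with a p-nitroanilide-linked peptide substrate; in other assays of this panel Not Active means under 50% inhibition at 10 µM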
T5 sequence (P08246 whole entry): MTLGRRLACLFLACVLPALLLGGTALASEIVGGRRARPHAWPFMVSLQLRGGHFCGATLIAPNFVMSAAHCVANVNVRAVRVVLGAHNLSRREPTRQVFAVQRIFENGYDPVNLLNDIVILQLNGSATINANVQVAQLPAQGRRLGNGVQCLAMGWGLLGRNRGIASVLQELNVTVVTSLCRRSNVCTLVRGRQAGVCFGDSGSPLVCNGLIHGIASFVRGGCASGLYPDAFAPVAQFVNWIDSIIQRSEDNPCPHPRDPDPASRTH

[7] = DRUGMATRIX: Potassium Channel [KATP] radioligand binding (ligand: [3H] Glyburide); type: cell membranes, Membrane; conditions: hit-t15; Not Active = under 50% inhibition at 10 µM

Sequence of Tyrosine-protein kinase Lck (P06239 whole entry): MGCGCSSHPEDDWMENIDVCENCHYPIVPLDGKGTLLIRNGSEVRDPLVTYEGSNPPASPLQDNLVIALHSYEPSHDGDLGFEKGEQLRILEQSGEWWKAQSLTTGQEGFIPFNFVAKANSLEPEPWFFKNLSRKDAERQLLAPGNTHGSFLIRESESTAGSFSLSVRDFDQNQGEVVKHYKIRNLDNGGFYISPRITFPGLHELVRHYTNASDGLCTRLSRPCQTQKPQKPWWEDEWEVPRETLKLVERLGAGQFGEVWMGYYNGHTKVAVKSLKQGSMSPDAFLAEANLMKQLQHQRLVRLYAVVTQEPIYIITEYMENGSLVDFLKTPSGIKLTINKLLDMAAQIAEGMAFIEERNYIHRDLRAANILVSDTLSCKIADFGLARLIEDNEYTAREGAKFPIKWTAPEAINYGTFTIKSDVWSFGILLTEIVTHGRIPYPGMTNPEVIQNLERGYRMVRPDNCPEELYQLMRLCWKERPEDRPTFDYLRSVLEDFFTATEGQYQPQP
Sequence of Sodium-dependent noradrenaline transporter (P23975 whole entry): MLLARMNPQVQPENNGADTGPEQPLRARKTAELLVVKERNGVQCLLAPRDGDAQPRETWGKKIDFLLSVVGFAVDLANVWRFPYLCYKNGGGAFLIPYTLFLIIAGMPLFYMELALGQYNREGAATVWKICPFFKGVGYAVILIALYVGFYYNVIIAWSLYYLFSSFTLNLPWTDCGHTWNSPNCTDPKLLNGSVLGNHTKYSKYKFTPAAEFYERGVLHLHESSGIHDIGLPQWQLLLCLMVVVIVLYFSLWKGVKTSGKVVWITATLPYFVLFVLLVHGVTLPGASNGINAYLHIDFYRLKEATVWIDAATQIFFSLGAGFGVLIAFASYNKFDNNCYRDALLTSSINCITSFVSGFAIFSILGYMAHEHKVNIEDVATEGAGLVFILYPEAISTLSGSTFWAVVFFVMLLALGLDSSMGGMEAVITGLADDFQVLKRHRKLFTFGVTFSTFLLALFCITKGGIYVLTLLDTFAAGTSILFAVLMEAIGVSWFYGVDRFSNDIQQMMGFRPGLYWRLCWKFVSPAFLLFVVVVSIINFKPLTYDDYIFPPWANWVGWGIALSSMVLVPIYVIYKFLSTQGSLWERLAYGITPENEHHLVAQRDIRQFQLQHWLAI

Compound: Oc1c(Cl)cc(Cl)cc1Sc1cc(Cl)cc(Cl)c1O [BITHIONOL]
- IC50 [1]: Not Active
- IC50 ([2]; read-out: IC50): 4.39 µM
- Ki ([2]; read-out: Ki): 0.638 µM
- IC50 [3]: Not Active
- Ki [3]: Not Active
- IC50 (Thromboxane-A synthase; read-out: IC50): 1.84 µM
- IC50 [4]: Not Active
- IC50 ([5]; read-out: IC50): 2.26 µM
- IC50 ([6]; read-out: IC50): 1.24 µM
- Ki ([6]; read-out: Ki): 1.23 µM
- IC50 (Neutrophil elastase): Not Active
- IC50 [7]: Not Active
- Ki [7]: Not Active

Compound: Cc1c(-c2ccccc2)oc2c(C(=O)OCCN3CCCCC3)cccc2c1=O [FLAVOXATE]
- IC50 [1]: Not Active
- IC50 ([2]; sf9): Not Active
- IC50 [3]: Not Active
- Ki [3]: Not Active
- IC50 (Thromboxane-A synthase; platelet): Not Active
- IC50 [4]: Not Active
- IC50 ([5]; insect cells): Not Active
- IC50 ([6]; mdck): Not Active
- IC50 (Neutrophil elastase): Not Active
- IC50 [7]: Not Active
- Ki [7]: Not Active

Compound: COc1ccc2c(c1)c(CC(=O)OCC(=O)O)c(C)n2C(=O)c1ccc(Cl)cc1 [ACEMETACIN]
- IC50 [1]: Not Active
- IC50 ([2]; sf9): Not Active
- IC50 [3]: Not Active
- Ki [3]: Not Active
- IC50 (Thromboxane-A synthase; platelet): Not Active
- IC50 [4]: Not Active
- IC50 ([5]; insect cells): Not Active
- IC50 ([6]; mdck): Not Active
- IC50 (Neutrophil elastase): Not Active
- IC50 [7]: Not Active
- Ki [7]: Not Active

Compound: COc1ccc([C@@H]2Sc3ccccc3N(CCN(C)C)C(=O)[C@@H]2OC(C)=O)cc1 [DILTIAZEM]
- IC50 [1]: Not Active
- IC50 ([2]; sf9): Not Active
- IC50 [3]: Not Active
- Ki [3]: Not Active
- IC50 (Thromboxane-A synthase; platelet): Not Active
- IC50 [4]: Not Active
- IC50 ([5]; insect cells): Not Active
- IC50 ([6]; mdck): Not Active
- IC50 (Neutrophil elastase): Not Active
- IC50 [7]: Not Active
- Ki [7]: Not Active

Compound: NCC[C@H](O)C(=O)N[C@@H]1C[C@H](N)[C@@H](O[C@H]2O[C@H](CN)[C@@H](O)[C@H](O)[C@H]2O)[C@H](O)[C@H]1O[C@H]1O[C@H](CO)[C@@H](O)[C@H](N)[C@H]1O [AMIKACIN]
- IC50 [1]: Not Active
- IC50 ([2]; sf9): Not Active
- IC50 [3]: Not Active
- Ki [3]: Not Active
- IC50 (Thromboxane-A synthase; platelet): Not Active
- IC50 [4]: Not Active
- IC50 ([5]; insect cells): Not Active
- IC50 ([6]; mdck): Not Active
- IC50 (Neutrophil elastase): Not Active
- IC50 [7]: Not Active
- Ki [7]: Not Active

Compound: CC(C)(Oc1ccc(CCNC(=O)c2ccc(Cl)cc2)cc1)C(=O)O [BEZAFIBRATE]
- IC50 [1]: Not Active
- IC50 ([2]; sf9): Not Active
- IC50 [3]: Not Active
- Ki [3]: Not Active
- IC50 (Thromboxane-A synthase; platelet): Not Active
- IC50 [4]: Not Active
- IC50 ([5]; insect cells): Not Active
- IC50 ([6]; mdck): Not Active
- IC50 (Neutrophil elastase): Not Active
- IC50 [7]: Not Active
- Ki [7]: Not Active

Compound: CC(C)NC[C@H](O)COc1cccc2[nH]ccc12
- IC50 [1]: Not Active
- IC50 ([2]; sf9): Not Active
- IC50 [3]: Not Active
- Ki [3]: Not Active
- IC50 (Thromboxane-A synthase; platelet): Not Active
- IC50 [4]: Not Active
- IC50 ([5]; insect cells): Not Active
- IC50 ([6]; mdck): Not Active
- IC50 (Neutrophil elastase): Not Active
- IC50 [7]: Not Active
- Ki [7]: Not Active

Compound: CCCSc1ccc2nc(NC(=O)OC)[nH]c2c1 [ALBENDAZOLE]
- IC50 [1]: Not Active
- IC50 ([2]; sf9): Not Active
- IC50 [3]: Not Active
- Ki [3]: Not Active
- IC50 (Thromboxane-A synthase; platelet): Not Active
- IC50 [4]: Not Active
- IC50 ([5]; insect cells): Not Active
- IC50 ([6]; mdck): Not Active
- IC50 (Neutrophil elastase): Not Active
- IC50 [7]: Not Active
- Ki [7]: Not Active

Compound: C=C1C(=O)O[C@@H]2C3O[C@]3(C)CC/C=C(\C)CC[C@@H]12 (stereo not given in full)
- IC50 [1]: Not Active
- IC50 ([2]; sf9): Not Active
- IC50 [3]: Not Active
- Ki [3]: Not Active
- IC50 (Thromboxane-A synthase; platelet): Not Active
- IC50 [4]: Not Active
- IC50 ([5]; insect cells): Not Active
- IC50 ([6]; mdck): Not Active
- IC50 (Neutrophil elastase): Not Active
- IC50 [7]: Not Active
- Ki [7]: Not Active

Compound: CN1C(C(=O)Nc2ccccn2)=C(O)c2ccccc2S1(=O)=O [PIROXICAM]
- IC50 [1]: Not Active
- IC50 ([2]; sf9): Not Active
- IC50 [3]: Not Active
- Ki [3]: Not Active
- IC50 (Thromboxane-A synthase; platelet): Not Active
- IC50 [4]: Not Active
- IC50 ([5]; insect cells): Not Active
- IC50 ([6]; mdck): Not Active
- IC50 (Neutrophil elastase): Not Active
- IC50 [7]: Not Active
- Ki [7]: Not Active

Compound: COc1c(N2CCNC(C)C2)c(F)cc2c(=O)c(C(=O)O)cn(C3CC3)c12 (stereo not given) [GATIFLOXACIN]
- IC50 [1]: Not Active
- IC50 ([2]; sf9): Not Active
- IC50 [3]: Not Active
- Ki [3]: Not Active
- IC50 (Thromboxane-A synthase; platelet): Not Active
- IC50 [4]: Not Active
- IC50 ([5]; insect cells): Not Active
- IC50 ([6]; mdck): Not Active
- IC50 (Neutrophil elastase): Not Active
- IC50 [7]: Not Active
- Ki [7]: Not Active

Compound: CC(/C=C1\SC(=S)N(CC(=O)O)C1=O)=C\c1ccccc1
- IC50 [1]: Not Active
- IC50 ([2]; sf9): Not Active
- IC50 [3]: Not Active
- Ki [3]: Not Active
- IC50 (Thromboxane-A synthase; platelet): Not Active
- IC50 [4]: Not Active
- IC50 ([5]; insect cells): Not Active
- IC50 ([6]; mdck): Not Active
- IC50 (Neutrophil elastase): Not Active
- IC50 [7]: Not Active
- Ki [7]: Not Active

Compound: OCc1ccccc1 [BENZYL ALCOHOL]
- IC50 [1]: Not Active
- IC50 ([2]; sf9): Not Active
- IC50 [3]: Not Active
- Ki [3]: Not Active
- IC50 (Thromboxane-A synthase; platelet): Not Active
- IC50 [4]: Not Active
- IC50 ([5]; insect cells): Not Active
- IC50 ([6]; mdck): Not Active
- IC50 (Neutrophil elastase): Not Active
- IC50 [7]: Not Active
- Ki [7]: Not Active
